In ChEMBL document CHEMBL3769394, “The Importance of Being Me: Magic Methyls, Methyltransferase Inhibitors, and the Discovery of Tazemetostat” (J Med Chem, 2016):
Active and inactive are the calls of the source. The calls are words filed in the database; no cut-off is given here.

Tested on: not listed separately
Experiment: AUC in mouse at 2 mg/kg, iv and 10 mg/kg, po by LC-MS/MS analysis
Assay type: ADME, organism-based
Conditions: in vivo

Row | AUC [ng·h/mL] | SMILES
1 | 350 | Cc1cc(C)c(CNC(=O)c2cc(Br)cc(N(C)C3CCOCC3)c2C)c(=O)[nH]1
2 | 46 | Cc1cc(C)c(CNC(=O)c2cc(Br)cc(N(C)C3CCCC3)c2C)c(=O)[nH]1
3 | 2500 | Cc1cc(C)c(CNC(=O)c2cc(-c3ccc(CN4CCOCC4)cc3)cc(N(C)C3CCCC3)c2C)c(=O)[nH]1
4 | 2500 | CCN(c1cc(-c2ccc(CN3CCOCC3)cc2)cc(C(=O)NCc2c(C)cc(C)[nH]c2=O)c1C)C1CCOCC1 [TAZEMETOSTAT]
5 | 2900 | Cc1cc(C)c(CNC(=O)c2cc(-c3ccc(CN4CCOCC4)cc3)cc3c2cnn3C2CCCC2)c(=O)[nH]1
6 | 950 | Cc1cc(C)c(CNC(=O)c2cc(-c3ccc(CN4CCOCC4)cc3)nc3c2cnn3C(C)C)c(=O)[nH]1
7 | 700 | Cc1cc(C)c(CNC(=O)c2cc(-c3ccc4c(c3)OCCO4)nc3c2cnn3C(C)C)c(=O)[nH]1
8 | 680 | CCN(c1cc(Cl)cc(C(=O)NCc2c(C)cc(C)[nH]c2=O)c1C)C1CCOCC1

Tested on: not listed separately
Experiment: Clearance in mouse at 2 mg/kg, iv and 10 mg/kg, po by LC-MS/MS analysis
Assay type: ADME, organism-based
Conditions: in vivo

Row | clearance [mL/min/kg] | SMILES
9 | 90 | Cc1cc(C)c(CNC(=O)c2cc(Br)cc(N(C)C3CCOCC3)c2C)c(=O)[nH]1
10 | 18 | Cc1cc(C)c(CNC(=O)c2cc(Br)cc(N(C)C3CCCC3)c2C)c(=O)[nH]1
11 | 16 | Cc1cc(C)c(CNC(=O)c2cc(-c3ccc(CN4CCOCC4)cc3)cc(N(C)C3CCCC3)c2C)c(=O)[nH]1
12 | 13 | CCN(c1cc(-c2ccc(CN3CCOCC3)cc2)cc(C(=O)NCc2c(C)cc(C)[nH]c2=O)c1C)C1CCOCC1 [TAZEMETOSTAT]
13 | 11 | Cc1cc(C)c(CNC(=O)c2cc(-c3ccc(CN4CCOCC4)cc3)cc3c2cnn3C2CCCC2)c(=O)[nH]1
14 | 35 | Cc1cc(C)c(CNC(=O)c2cc(-c3ccc(CN4CCOCC4)cc3)nc3c2cnn3C(C)C)c(=O)[nH]1
15 | 24 | Cc1cc(C)c(CNC(=O)c2cc(-c3ccc4c(c3)OCCO4)nc3c2cnn3C(C)C)c(=O)[nH]1
16 | 49 | CCN(c1cc(Cl)cc(C(=O)NCc2c(C)cc(C)[nH]c2=O)c1C)C1CCOCC1

Tested on: not listed separately
Experiment: Volume of distribution at steady state in mouse at 2 mg/kg, iv and 10 mg/kg, po by LC-MS/MS analysis
Assay type: ADME, organism-based
Conditions: in vivo, read-out: Vdss

Row | Vd [L/kg] | SMILES
17 | 2.7 | Cc1cc(C)c(CNC(=O)c2cc(Br)cc(N(C)C3CCOCC3)c2C)c(=O)[nH]1
18 | 0.97 | Cc1cc(C)c(CNC(=O)c2cc(Br)cc(N(C)C3CCCC3)c2C)c(=O)[nH]1
19 | 0.66 | Cc1cc(C)c(CNC(=O)c2cc(-c3ccc(CN4CCOCC4)cc3)cc(N(C)C3CCCC3)c2C)c(=O)[nH]1
20 | 1 | CCN(c1cc(-c2ccc(CN3CCOCC3)cc2)cc(C(=O)NCc2c(C)cc(C)[nH]c2=O)c1C)C1CCOCC1 [TAZEMETOSTAT]
21 | 0.49 | Cc1cc(C)c(CNC(=O)c2cc(-c3ccc(CN4CCOCC4)cc3)cc3c2cnn3C2CCCC2)c(=O)[nH]1
22 | 1.5 | Cc1cc(C)c(CNC(=O)c2cc(-c3ccc(CN4CCOCC4)cc3)nc3c2cnn3C(C)C)c(=O)[nH]1
23 | 1.3 | Cc1cc(C)c(CNC(=O)c2cc(-c3ccc4c(c3)OCCO4)nc3c2cnn3C(C)C)c(=O)[nH]1
24 | 0.45 | CCN(c1cc(Cl)cc(C(=O)NCc2c(C)cc(C)[nH]c2=O)c1C)C1CCOCC1

Target: T1, Histone-lysine N-methyltransferase EZH2 (Homo sapiens, UniProt Q15910)
Experiment: Inhibition of methyltransferase activity of human EZH2 using chicken oligonucleosomes as substrate up to 10 uM by pull down assay
Conditions: not given
Target sequence in this assay (Q15910 whole entry, looked up): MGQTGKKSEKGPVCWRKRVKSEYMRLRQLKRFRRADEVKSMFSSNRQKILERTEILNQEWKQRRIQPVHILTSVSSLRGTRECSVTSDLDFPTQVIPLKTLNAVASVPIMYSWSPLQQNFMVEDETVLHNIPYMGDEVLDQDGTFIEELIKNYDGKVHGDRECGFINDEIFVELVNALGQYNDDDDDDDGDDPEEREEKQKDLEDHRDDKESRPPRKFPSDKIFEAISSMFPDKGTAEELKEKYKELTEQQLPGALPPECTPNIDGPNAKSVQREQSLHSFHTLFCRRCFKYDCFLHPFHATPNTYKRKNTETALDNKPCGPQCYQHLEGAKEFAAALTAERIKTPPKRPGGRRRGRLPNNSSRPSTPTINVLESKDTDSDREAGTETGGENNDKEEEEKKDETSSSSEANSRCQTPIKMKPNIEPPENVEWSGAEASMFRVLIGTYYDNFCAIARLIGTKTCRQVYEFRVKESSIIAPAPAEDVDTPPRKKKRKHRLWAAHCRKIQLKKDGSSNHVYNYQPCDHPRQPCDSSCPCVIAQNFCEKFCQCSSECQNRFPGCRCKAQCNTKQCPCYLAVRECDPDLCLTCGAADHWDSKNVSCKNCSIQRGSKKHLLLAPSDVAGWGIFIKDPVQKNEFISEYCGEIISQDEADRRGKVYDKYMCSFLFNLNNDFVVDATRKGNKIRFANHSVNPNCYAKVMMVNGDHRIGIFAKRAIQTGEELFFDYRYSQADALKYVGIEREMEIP

Row | inhibition | SMILES
25 | inactive | CCN(c1cc(Cl)cc(C(=O)NCc2c(C)cc(C)nc2OC)c1C)C1CCOCC1

Tested on: not listed separately
Experiment: Oral bioavailability in mouse at 10 mg/kg by LC-MS/MS analysis
Assay type: ADME, organism-based
Conditions: in vivo

Row | bioavailability [%] | SMILES
26 | 18 | Cc1cc(C)c(CNC(=O)c2cc(Br)cc(N(C)C3CCOCC3)c2C)c(=O)[nH]1
27 | 2 | Cc1cc(C)c(CNC(=O)c2cc(Br)cc(N(C)C3CCCC3)c2C)c(=O)[nH]1
28 | 24 | Cc1cc(C)c(CNC(=O)c2cc(-c3ccc(CN4CCOCC4)cc3)cc(N(C)C3CCCC3)c2C)c(=O)[nH]1
29 | 55 | CCN(c1cc(-c2ccc(CN3CCOCC3)cc2)cc(C(=O)NCc2c(C)cc(C)[nH]c2=O)c1C)C1CCOCC1 [TAZEMETOSTAT]
30 | 47 | Cc1cc(C)c(CNC(=O)c2cc(-c3ccc(CN4CCOCC4)cc3)cc3c2cnn3C2CCCC2)c(=O)[nH]1
31 | 41 | Cc1cc(C)c(CNC(=O)c2cc(-c3ccc(CN4CCOCC4)cc3)nc3c2cnn3C(C)C)c(=O)[nH]1
32 | 0.5 | Cc1cc(C)c(CNC(=O)c2cc(-c3ccc4c(c3)OCCO4)nc3c2cnn3C(C)C)c(=O)[nH]1
33 | 1.6 | CCN(c1cc(Cl)cc(C(=O)NCc2c(C)cc(C)[nH]c2=O)c1C)C1CCOCC1

Tested on: not listed separately
Experiment: Aqueous solubility of the compound at pH 7
Assay type: physicochemical
Conditions: aqueous, read-out: solubility

Row | solubility [µM] | SMILES
34 | < 10 | Cc1cc(C)c(CNC(=O)c2cc(C)n(C3CCCCC3)c2C)c(=O)[nH]1

Same assay, conditions: buffer

Row | solubility | SMILES
35 | soluble | Cc1cc(C)c(CNC(=O)c2cc(N3CCNCC3)nc3c2cnn3C(C)C)c(=O)[nH]1
36 | soluble | Cc1cc(C)c(CNC(=O)c2cc(C(C)C)nc3c2cnn3C(C)C)c(=O)[nH]1
37 | soluble | Cc1cc(C)c(CNC(=O)c2ccnc3c2cnn3C(C)C)c(=O)[nH]1
38 | soluble | Cc1cc(C)c(CNC(=O)c2cc(C3=CC(C)(C)NC(C)(C)C3)nc3c2cnn3C(C)C)c(=O)[nH]1
39 | soluble | Cc1cc(C)c(CNC(=O)c2cc(Br)nc3c2cnn3C(C)C)c(=O)[nH]1
40 | soluble | Cc1cc(C)c(CNC(=O)c2cc(-c3ccc(CN4CCOCC4)cc3)nc3c2cnn3C(C)C)c(=O)[nH]1
41 | soluble | COc1cc(C(=O)NCc2c(C)cc(C)[nH]c2=O)c2cnn(C(C)C)c2n1
42 | soluble | Cc1cc(C)c(CNC(=O)c2cc(-c3ccc(N4CCNCC4)nc3)nc3c2cnn3C(C)C)c(=O)[nH]1

Target: T1, Histone-lysine N-methyltransferase EZH2
Experiment: Inhibition of methyltransferase activity of human EZH2 using chicken oligonucleosomes as substrate by pull down assay
Conditions: not given
Target sequence in this assay (Q15910 whole entry): as the sequence (Q15910 whole entry, looked up) above

Row | SMILES | IC50 [nM]
43 | Cc1cc(C)c(CNC(=O)c2ccc3c(cnn3C(C)C)c2)c(=O)[nH]1 | 22000
44 | CCN(c1cc(Cl)cc(C(=O)NCc2c(C)cc(C)[nH]c2=O)c1)C1CCOCC1 | 14000
45 | Cc1cc(C)c(CNC(=O)c2ccc3cnn(C4CCCC4)c3c2C)c(=O)[nH]1 | 6000
46 | Cc1cc(C)c(CNC(=O)c2cccc3c2nnn3C(C)C)c(=O)[nH]1 | > 50000
47 | Cc1cc(C)c(CNC(=O)c2cccc3c2ncn3C(C)C)c(=O)[nH]1 | > 50000
48 | Cc1cc(C)c(CNC(=O)c2cc(C3=CC(C)(C)NC(C)(C)C3)nc3c2cnn3C)c(=O)[nH]1 | 39000
49 | CCN(c1cc(Cl)cc(C(=O)NCc2c(C)cc(C)nc2OC)c1C)C1CCOCC1 | > 10000
50 | Cc1cc(C)c(CNC(=O)c2ccc3cnn(C(C)C)c3c2)c(=O)[nH]1 | > 50000
51 | CCn1ncc2c(C(=O)NCc3c(C)cc(C)[nH]c3=O)cc(C3=CC(C)(C)NC(C)(C)C3)nc21 | 5000
52 | Cc1cc(C)c(CNC(=O)c2ccc3cnn(C4CCCC4)c3c2)c(=O)[nH]1 | > 50000

Continued, values first:

Row | IC50 [nM] | SMILES
53 | 50 | Cc1cc(C)c(CNC(=O)c2cc(Br)nc3c2cnn3C2CCN(C(=O)C(C)(C)C)CC2)c(=O)[nH]1
54 | 1600 | Cc1cc(C)c(CNC(=O)c2cc(N3CCNCC3)nc3c2cnn3C(C)C)c(=O)[nH]1
55 | 2300 | Cc1cc(C)c(CNC(=O)c2cc(C(C)C)nc3c2cnn3C(C)C)c(=O)[nH]1
56 | 3100 | Cc1cc(C)c(CNC(=O)c2ccnc3c2cnn3C(C)C)c(=O)[nH]1
57 | 200 | CCN(c1ccc(Cl)c(C(=O)N(C)Cc2c(C)cc(C)[nH]c2=O)c1C)C1CCOCC1
58 | 300 | Cc1cc(C)c(CNC(=O)c2cc(C3=CC(C)(C)NC(C)(C)C3)nc3c2cnn3C(C)C)c(=O)[nH]1
59 | 50 | Cc1cc(C)c(CNC(=O)c2cc(Br)nc3c2cnn3C2CCN(C(=O)N(C)C)CC2)c(=O)[nH]1
60 | 2200 | Cc1cc(C)c(CNC(=O)c2cc(Br)nc3c2cnn3C2CCNCC2)c(=O)[nH]1
61 | 900 | Cc1cc(C)c(CNC(=O)c2cc(Br)nc3c2cnn3C(C)C)c(=O)[nH]1
62 | 3400 | Cc1cc(C)c(CNC(=O)c2cc(C)n(C3CCCCC3)c2C)c(=O)[nH]1
63 | 200 | Cc1cc(C)c(CNC(=O)c2cc(Br)nc3c2cnn3C2CCN(C(=O)OC(C)(C)C)CC2)c(=O)[nH]1
64 | 3100 | Cc1cc(C)c(CNC(=O)c2cccc3c2ccn3C(C)C)c(=O)[nH]1
65 | 500 | Cc1cc(C)c(CNC(=O)c2cc(-c3ccc4c(c3)OCCO4)nc3c2cnn3C(C)C)c(=O)[nH]1
66 | 700 | Cc1cc(C)c(CNC(=O)c2cc(Br)nc3c2cnn3C2CCOCC2)c(=O)[nH]1
67 | 1100 | Cc1cc(C)c(CNC(=O)c2cccc3c2cnn3C(C)C)c(=O)[nH]1
68 | 2400 | COc1cc(C(=O)NCc2c(C)cc(C)[nH]c2=O)c2cnn(C(C)C)c2n1
69 | 200 | Cc1cc(C)c(CNC(=O)c2cc(-c3ccc(N4CCNCC4)nc3)nc3c2cnn3C(C)C)c(=O)[nH]1
